According to patent publication US20160176859A1, “High-Throughput Assay for Identifying Small Molecules that Modulate AMP-activated Protein Kinase (AMPK)” (North Carolina Central University, priority 2013, published 2016):
“Also recorded” adds a separate entry of the source. Like-named read-outs stand apart in the source and are kept apart here.

Legend:
[1] = target: T1, AMPK regulatory fragment (rat His-α1, 396-548; human β2, 187-272; rat γ1) (Rattus norvegicus, UniProt P80385); experiment: MANT-ADP fluorescence displacement (binding) assay, AMPK regulatory fragment; conditions: MANT-ADP with no protein = 100% inhibition, read-out: IC50, inhibition of the increase in MANT-ADP fluorescence
T1 construct: rat His-α1, 396-548; human β2, 187-272; rat γ1; made in house; host or cells: Rosetta cells (E. coli), tricistronic vector, gift of Dr. Steve Gamblin
T1 sequence (P54645 407-559 partner limits assumed): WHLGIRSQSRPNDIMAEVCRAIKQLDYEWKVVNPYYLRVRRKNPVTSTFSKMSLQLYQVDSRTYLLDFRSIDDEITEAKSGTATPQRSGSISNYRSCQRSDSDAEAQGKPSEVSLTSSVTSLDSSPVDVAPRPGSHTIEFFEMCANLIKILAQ
T1 sequence (O43741 187-272 partner limits assumed): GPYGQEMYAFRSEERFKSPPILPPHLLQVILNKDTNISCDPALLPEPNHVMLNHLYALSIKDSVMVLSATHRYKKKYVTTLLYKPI
T1 sequence (P80385 whole entry, the tested form may be a part): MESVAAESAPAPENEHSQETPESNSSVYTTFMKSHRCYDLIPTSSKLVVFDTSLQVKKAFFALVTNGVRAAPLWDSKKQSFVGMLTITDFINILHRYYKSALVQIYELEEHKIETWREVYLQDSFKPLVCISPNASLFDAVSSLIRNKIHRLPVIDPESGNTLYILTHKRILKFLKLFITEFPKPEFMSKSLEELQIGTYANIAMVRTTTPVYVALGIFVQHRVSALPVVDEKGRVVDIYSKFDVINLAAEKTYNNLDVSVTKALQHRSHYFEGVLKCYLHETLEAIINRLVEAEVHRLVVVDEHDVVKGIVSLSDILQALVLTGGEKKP
Procedure: (§1) Except where otherwise noted, assays were performed with the following conditions: 0.5 μM full-length AMPK (130 kDa) or 0.5 μM regulatory fragment (66.7 kDa), 0.1 μM MANT-ADP, 10 mM Tris-HCl (pH 8), 0.45% DMSO (vehicle and negative control), and 5 μM ADP (positive control). Automated assays were assembled in two steps. First, a NanoQuot (BioTek) was used to dispense 11 μL of master mix (protein, MANT-ADP, and Tris-HCl) per well in black, low volume 384-well plates (Corning-3676). Next, a Biomek NX workstation (Beckman-Coulter, Brea, Calif.) equipped with pintools (VP Scientific, San Diego Calif.) was used to transfer 50 nL of controls (columns 1, 2, 23, and 24) and small molecules (4.5 μM final). Controls and library molecules were transferred from Axygen 384-well rigid PCR plates (Cat no. 321-67-051) at 221× concentration for single-concentration screening. Plates were shaken for 10 minutes prior to reading.
(§2) Fluorescence emission spectra of MANT-ADP were collected using a PerkinElmer EnSpire plate reader with an excitation wavelength of 360 nm. Background fluorescence from protein was subtracted from the raw data prior to plotting MANT-ADP's fluorescence in the presence of protein. Fluorescence detection for assay development and screening was performed on either a BMG Pherastar Plus (360/10 excitation and 460/10 emission filters) or a PerkinElmer EnVision (355/40 excitation and 460/25 emission filters), depending on equipment availability. Relative fluorescence units (RFUs) were recorded at room temperature.
(§3) ScreenAble (ScreenAble Solutions, Chapel Hill, N.C.) high-throughput screening software was utilized for merging screening data and chemical structure, for statistical design of experiments, and hit selection. GraphPad Prism was used for non-linear regression analysis of dose response data.
(§4) Binding assays. Except where otherwise noted, assay assembly and data analysis were completed according to published methods. Binding assays were manually assembled, with the exception of the similarity screen. Automated assembly of the similarity screen was completed according to published methods. Analogs were cherry-picked from a 10 mM Asinex small molecule library and a 0.5 mM kinase focused library, which has been described previously (4). Molecules were screened at a final concentration of 45 and 2.3 μM, respectively.

[2] = target: T2, full-length AMPK (rat His-α1, β1, γ1) (Rattus norvegicus, UniProt P54645+P80385); experiment: MANT-ADP fluorescence displacement (binding) assay, full-length AMPK; conditions: for displacement of MANT-ADP: full-length AMPK compared with regulatory fragment: compared in parallel; for IC50: full-length AMPK
T2 construct: Tricistronic vectors encoding full-length AMPK (rat His-α1, β1, γ1); made in house; host or cells: Rosetta cells (E. coli), tricistronic vector, gift of Dr. Uwe Schlattner
T2 sequence (P54645 with tags, fused parts or gaps limits assumed): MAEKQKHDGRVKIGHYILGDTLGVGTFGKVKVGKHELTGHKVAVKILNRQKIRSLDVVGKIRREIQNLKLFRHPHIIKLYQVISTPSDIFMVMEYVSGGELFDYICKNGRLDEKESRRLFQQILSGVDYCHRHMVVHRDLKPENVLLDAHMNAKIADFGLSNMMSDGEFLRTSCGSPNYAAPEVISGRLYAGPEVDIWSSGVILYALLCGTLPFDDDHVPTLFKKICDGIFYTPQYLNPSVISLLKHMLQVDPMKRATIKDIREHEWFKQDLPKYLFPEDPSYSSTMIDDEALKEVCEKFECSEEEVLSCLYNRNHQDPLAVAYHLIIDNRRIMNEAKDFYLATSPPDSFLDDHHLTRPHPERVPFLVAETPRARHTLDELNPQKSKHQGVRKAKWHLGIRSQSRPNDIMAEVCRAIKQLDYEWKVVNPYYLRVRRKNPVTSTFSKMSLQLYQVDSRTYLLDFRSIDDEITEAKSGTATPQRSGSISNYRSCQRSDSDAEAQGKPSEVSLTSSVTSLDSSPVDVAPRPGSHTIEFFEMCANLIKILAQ
T2 sequence (P80386 whole entry partner, the tested form may be a part): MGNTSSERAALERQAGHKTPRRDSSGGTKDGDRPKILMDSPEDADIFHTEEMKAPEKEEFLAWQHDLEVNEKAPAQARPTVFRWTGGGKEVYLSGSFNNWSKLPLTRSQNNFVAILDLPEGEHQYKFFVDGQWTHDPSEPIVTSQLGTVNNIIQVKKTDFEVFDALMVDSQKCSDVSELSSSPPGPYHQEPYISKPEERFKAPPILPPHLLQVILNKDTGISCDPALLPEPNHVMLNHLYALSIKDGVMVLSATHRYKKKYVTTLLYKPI
T2 sequence (P80385 whole entry, the tested form may be a part): as the sequence (P80385 whole entry, the tested form may be a part) above
Procedure: as §1, §2, §3, §4

full-length His-AMPK = target: T3, full-length His-AMPK (Rattus norvegicus, UniProt P54645+P80385); experiment: Isothermal titration calorimetry; assay type: binding; conditions: both sites; 5 mM phosphate buffer (pH 7.4), room temperature; n=1; read-out: calculated dissociation constants
T3 construct: Tricistronic vectors encoding full-length AMPK (rat His-α1, β1, γ1); made in house; host or cells: Rosetta cells (E. coli), tricistronic vector, gift of Dr. Uwe Schlattner
T3 sequence (P54645 with tags, fused parts or gaps limits assumed): as the sequence (P54645 with tags, fused parts or gaps limits assumed) above
T3 sequence (P80386 whole entry partner): as the sequence (P80386 whole entry partner, the tested form may be a part) above
T3 sequence (P80385 whole entry): as the sequence (P80385 whole entry, the tested form may be a part) above
Procedure: ITC. A MicroCal Auto-iTC200 system (GE Healthcare, Pittsburgh, Pa.) was used to study binding interactions between ADP and full-length His-AMPK at room temperature in the presence of 5 mM phosphate buffer (pH 7.4). To decrease the ionic strength of the buffer, full-length AMPK frozen in 50 mM phosphate buffer was thawed, diluted in 5 mM phosphate buffer (pH 7.4) and then concentrated via centrifugal filtration. At the start of the ITC experiment, the concentrations of His-AMPK (in the sample cell) and ADP (in the syringe) were 70 μM and 1.4 mM, respectively.

purified p-AMPK = target: T4, purified p-AMPK (Rattus norvegicus, UniProt P54645+P80385); experiment: Kinase assay with purified p-AMPK and GST-ACC peptide; assay type: biochemical
T4 construct: Full-length AMPK intended for use in phosphatase and kinase assays was purified, mixed with GST-CaMKKβ; made in house; host or cells: Rosetta cells (E. coli); phosphorylated in vitro with GST-CaMKKβ, which was then removed on glutathione resin
T4 sequence (P54645 with tags, fused parts or gaps limits assumed): as the sequence (P54645 with tags, fused parts or gaps limits assumed) above
T4 sequence (P80386 whole entry partner): as the sequence (P80386 whole entry partner, the tested form may be a part) above
T4 sequence (P80385 whole entry): as the sequence (P80385 whole entry, the tested form may be a part) above
Procedure: Kinase assays. Assay conditions were adapted from published methods (17). The final assay buffer was comprised of 40 mM Hepes (pH 7.4) 5 mM MgCl2, 200 μM ATP, 75 mM NaCl, 0.01% Triton X-100, 1 mM DTT, and 0.45% DMSO (vehicle). Because some analogs had poor solubility at high concentrations, all analogs and controls were diluted in assay buffer and centrifuged (1 min, 5000 rpm, 4° C.) to remove insoluble matter. GST-ACC peptide and p-AMPK were thawed, diluted in assay buffer, and then added to the supernatant at final concentrations of 900 and 0.1 ng/μL, respectively. Kinase assays were assembled on ice; reactions were allowed to proceed for 30 minutes at room temperature. Reactions were stopped by the addition of loading buffer and 48 mM DTT followed promptly by freezing at −20° C.
(§5) Western analyses. Protein samples were boiled for 15 minutes in loading buffer and DTT prior to SDS-PAGE. Blots for protein-based assays were sequentially incubated with the following: 5% BSA in 1× TBS (1 hr, 22° C.), 1:1000 rabbit anti-human p-AMPK-α antibody or p-ACC antibody (2 hr, 22° C.), and 1:10,000 donkey anti-rabbit secondary antibody (1 hr, 22° C.). Blots for phosphatase assays were probed a second time using 1:100 mouse anti-human total AMPK antibody (overnight, 4° C.; from UNC Antibody Core Facility) followed by 1:10,000 donkey anti-mouse secondary antibody (1 hr, 22° C.). Blots for clarified cell lysates were sequentially probed for p-AMPK (1:500 dilution, overnight at 4° C. or 4 hours at 22° C.), total ACC (1:1000 dilution, overnight at 4° C. or 4 hours at 22° C.), and tubulin (1:10,000 dilution, 1 hr, 22° C.); a parallel set of blots were probed for p-ACC (1:500 dilution, overnight at 4° C. or 4 hours at 22° C.), total AMPK (1:1000 dilution, overnight at 4° C. or 4 hours at 22° C.), and tubulin (1:10,000 dilution, 1 hr, 22° C.). Because phosphorylated and total protein were imaged on separate membranes, the signals were normalized to the internal tubulin signal prior to calculating the ratio of phosphorylated to total protein. Scanning and imaging were completed according to published methods.

HEK cells = experiment: Cell-intact assay, attachment of HEK cells to tissue culture plates; assay type: cell-based, human; conditions: absence of serum
Procedure: (§6) Cell-intact assays. HEK cells were grown in DMEM with 10% FBS and 1% penicillin/streptomycin at 37° C. A subset of plates was serum-starved for 5 hours on the day of the experiment. After 5 hours of serum-starvation, cells were treated with either controls (0.2% DMSO, A-769662, or Compound C) or small molecules in the absence of serum for an additional hour prior to lysis. Another subset of plates was serum-starved for 6 hours and then treated with either controls or small molecules for 1 hour in the presence of 10% FBS. A time course of both AMPK and ACC phosphorylation in HEK cells during serum starvation has already been published (Pirkmajer S, Chibalin A V. Serum starvation: caveat emptor. American journal of physiology Cell physiology. 2011 August; 301(2):C272-9. PubMed PMID: 2161361).

[3] = system: p-AMPK levels in HEK cells; experiment: Cell-intact assay, p-AMPK levels in HEK cells; assay type: cell-based, human; conditions: serum starvation followed by 10% serum; 1 hour
Procedure: as §6
After incubating in the presence of drugs for one hour, cells were washed three times with ice-cold PBS and lysed according to published methods (Kazgan N, Williams T, Forsberg L J, Brenman J E. Identification of a nuclear export signal in the catalytic subunit of AMP-activated protein kinase. Molecular biology of the cell. 2010 Oct. 1; 21(19):3433-42. PubMed PMID: 20685962. Pubmed Central PMCID: 2947478). […] The concentration of protein in diluted clarified supernatant was calculated using a DC protein assay kit (BioRad) prior to western analyses. […]

[4] = system: p-ACC levels in HEK cells; experiment: Cell-intact assay, p-ACC levels in HEK cells; assay type: cell-based, human
Procedure: as §6
After incubating in the presence of drugs for one hour, cells were washed three times with ice-cold PBS and lysed according to published methods (Kazgan N, Williams T, Forsberg L J, Brenman J E. Identification of a nuclear export signal in the catalytic subunit of AMP-activated protein kinase. Molecular biology of the cell. 2010 Oct. 1; 21(19):3433-42. PubMed PMID: 20685962. Pubmed Central PMCID: 2947478). Lysates were centrifuged at 16,000 g (10 minutes, 4° C.). Clarified supernatant (30 μL) was then transferred to 10 μL 4X loading buffer and 2 μL 1 M DTT. Samples were immediately frozen at −20° C. The concentration of protein in diluted clarified supernatant was calculated using a DC protein assay kit (BioRad) prior to western analyses.
as §5

[5] = target: T5, p-AMPK in the presence of PP2C (Rattus norvegicus, UniProt P54645+P80385); experiment: Phosphatase assay: protection of p-AMPK from dephosphorylation by PP2C; assay type: biochemical; conditions: p-AMPK/total AMPK ratio normalized to no-PP2C control
T5 construct: Full-length AMPK intended for use in phosphatase and kinase assays was purified, mixed with GST-CaMKKβ; made in house; host or cells: Rosetta cells (E. coli); phosphorylated in vitro with GST-CaMKKβ, which was then removed
T5 sequence (P54645 with tags, fused parts or gaps limits assumed): as the sequence (P54645 with tags, fused parts or gaps limits assumed) above
T5 sequence (P80386 whole entry partner): as the sequence (P80386 whole entry partner, the tested form may be a part) above
T5 sequence (P80385 whole entry): as the sequence (P80385 whole entry, the tested form may be a part) above
Procedure: Phosphatase assays. Assay conditions were adapted from published methods (18). In short, the final assay buffer was compromised of 50 mM Tris (pH 7.5), […], 0.01% Triton X-100, 1 mM DTT, and 0.45% DMSO (vehicle). Because some analogs had poor solubility at high concentrations, all analogs and controls were diluted in assay buffer and centrifuged (1 min, 5000 rpm, 4° C.) to remove insoluble matter. PP2C and p-AMPK were added to the supernatant at final concentrations of 2 and 3 ng/μL, respectively. Phosphatase reactions were allowed to proceed for 30 minutes at 37° C. Reactions were stopped by the addition of loading buffer and 48 mM DTT followed promptly by freezing at −20° C.
Western analyses. Protein samples were boiled for 15 minutes in loading buffer and DTT prior to SDS-PAGE. Blots for protein-based assays were sequentially incubated with the following: 5% BSA in 1× TBS (1 hr, 22° C.), 1:1000 rabbit anti-human p-AMPK-α antibody or p-ACC antibody (2 hr, 22° C.), and 1:10,000 donkey anti-rabbit secondary antibody (1 hr, 22° C.). Blots for phosphatase assays were probed a second time using 1:100 mouse anti-human total AMPK antibody (overnight, 4° C.; from UNC Antibody Core Facility) followed by 1:10,000 donkey anti-mouse secondary antibody (1 hr, 22° C.). […]

| IC50 [1] [µM] | IC50 ([2]; MANT-ADP with no protein = 100% inhibition, read-out: IC50, inhibition of the increase in MANT-ADP fluorescence) [µM] | Kd (full-length His-AMPK) [µM] | dose response when repeated with an additional concentration at 1 μM (purified p-AMPK; high p-GST-ACC peptide at both 1 and 40 μM, data not shown) | substrate phosphorylation at higher doses (purified p-AMPK; higher doses) | detachment of cells from tissue culture plates (HEK cells) | inhibition of the protein-bound signal of MANT-ADP in the triplicate similarity screen ([2]; final concentration 45 μM) | IC50 ([2]; Example 4, read-out: binding IC50) [µM] | protection of p-AMPK from dephosphorylation [5] | Structure (SMILES) | displacement of MANT-ADP: full-length AMPK compared with regulatory fragment [2] | activity of purified p-AMPK (phosphorylation of GST-ACC peptide), dose response (purified p-AMPK; compared to DMSO control) | p-AMPK levels, pre-conditioned HEK cells [3] | p-ACC levels, serum-treated HEK cells ([4]; 10% serum) | p-ACC levels (substrate phosphorylation), pre-conditioned HEK cells ([4]; serum starvation followed by 10% serum, 1 hour) |
| --- | --- | --- | --- | --- | --- | --- | --- | --- | --- | --- | --- | --- | --- | --- |
| 0.4 | 0.3 | 13 | – | – | – | – | – | – | Nc1ncnc2c1ncn2[C@@H]1O[C@H](COP(=O)(O)OP(=O)(O)O)[C@@H](O)[C@H]1O [ADP, adenosine diphosphate, reference compound] | same binding IC50; also recorded: same concentration | – | – | – | – |
| – | – | – | complete U-shaped dose response | permitted substrate phosphorylation | caused many cells to detach | reproducibly inhibited | < 5 | protected p-AMPK from dephosphorylation | O=C1/C(=C/c2ccc(-c3ccc(Cl)c(Cl)c3)o2)SC(=S)N1CCS(=O)(=O)O [BAS 02250954, 2-[(5Z)-5-{[5-(3,4-Dichlorophenyl)furan-2-yl]methylidene}-4-oxo-2-sulfanylidene-1,3-thiazolidin-3-yl]ethane-1-sulfonic acid] | greater concentration | significantly inhibited substrate phosphorylation at low doses; also recorded: inhibits substrate phosphorylation | high levels of p-AMPK | decreased substrate phosphorylation | no change in substrate phosphorylation; also recorded: does not increase |
